Where a SMILES comes first, the peptide text is derived from it. [ ]: non-standard residue; d: D form. Phe(4-Br) = N[C@@H](Cc1ccc(Br)cc1)C(=O)O; NMeL = CN[C@@H](CC(C)C)C(=O)O; Nle = CCCC[C@H](N)C(=O)O; Aib = CC(C)(N)C(=O)O
Tests used:
KLKB1 = KLKB1 (Homo sapiens, UniProt P03952); experiment: Kinetic parameters for KLKB1 cleavage; assay type: biochemical; set-up: purchased Novoprotein; details: for Km / kcat: enzyme KLKB1
[1] = In vitro peptide stability in human blood plasma (RP-HPLC)
[2] = target: T1, wild-type rat apelin receptor (Rattus norvegicus, UniProt Q9JHG3); experiment: Radioligand binding, displacement of [125I]-pyr-1-apelin-13 on CHO cell membranes
T1 construct: expressed in transfected cells
T1 sequence (Q9JHG3 1-377): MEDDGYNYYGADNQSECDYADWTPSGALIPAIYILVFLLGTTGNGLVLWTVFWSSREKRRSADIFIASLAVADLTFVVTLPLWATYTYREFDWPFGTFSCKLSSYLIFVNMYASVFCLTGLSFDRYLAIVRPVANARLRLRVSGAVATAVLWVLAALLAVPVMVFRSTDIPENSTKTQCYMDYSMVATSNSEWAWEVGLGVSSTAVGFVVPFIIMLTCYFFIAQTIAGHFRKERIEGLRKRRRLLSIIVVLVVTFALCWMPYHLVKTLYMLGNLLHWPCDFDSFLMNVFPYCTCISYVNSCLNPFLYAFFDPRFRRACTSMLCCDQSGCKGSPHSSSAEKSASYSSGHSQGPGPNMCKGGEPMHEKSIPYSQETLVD
Method in brief: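 Membranes (1 μg) from CHO cells stably expressing rat apelin receptor-EGFP incubated 3 h at 20 °C with 0.2 nM [125I]-pyr-1-apelin-13 and varying peptide concentrations in 50 mM HEPES, 5 mM MgCl2, 1% BSA, pH 7.5. Bound radioactivity measured by filtration and gamma counting.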

isolated rat hearts = experiment: Langendorff isolated heart, ischemia-reperfusion injury; details: ex vivo heart, 30 min ischemia
Experimental: The ex vivo heart was assessed for a variety of parameters (heart rate (HR); left ventricle developed pressure (LVDP); maximum derivative of change in systolic pressure over time (max dP/dt); minimum derivative of change in diastolic pressure over time (min dP/dt); and rate-pressure product (RPP)) indicative of general heart function and performance (FIG. 11).
Langendorff heart perfusion and ischemia-reperfusion injury were prepared and cardiac function was measured. Mice were heparinized and anaesthetized with 1.5-2% isoflurane inhalation. The heart was excised, mounted on a Langendorff system, and perfused at a consistent pressure of 80 mmHg with modified Krebs-Henseleit solution (116 mM NaCl, 3.2 mM KCl, 2.0 mM CaCl2), 1.2 mM MgSO4, 25 mM NaHCO3, 1.2 mM KH2PO4, 11 mM glucose, 0.5 mM EDTA and 2 mM pyruvate), which was kept at 37° C. and continuously oxygenated with 95% O2 and 5% CO2 which maintained the perfusion buffer at pH 7.4. After stabilization and 10 min baseline recording, global ischemia was induced for 30 min followed by 40 min of reperfusion. Apelin 17 (2) or apelin peptides (11, 17, 18, or 19) were given at the start of reperfusion for 10 min at a concentration of 1 pM. Left ventricular functions were obtained continuously by PowerLab system (ADInstruments, Australia). Data was reported as mean value of every 5 min. Left ventricular functions were reported as: Left Ventricular Developed Pressure (LVDP); Heart rate (HR); maximum derivative of change in systolic pressure over time (max dP/dt); minimum derivative of change in diastolic pressure over time (min dP/dt); and Rate Pressure Product (RPP).

NEP = NEP (Homo sapiens, UniProt P08473); experiment: Neprilysin inhibition assay (degradation of 1 after preincubation with peptide); assay type: biochemical; set-up: purchased Sino Biological; details: preincubation of NEP with equimolar peptide
Experimental: This experiment investigates the ability of synthetic peptides 8-19 to inhibit the inherent proteolytic activity of NEP.
Assays were performed in duplicate (n=2) for each time point.

Sequence of KLKB1 (P03952 20-638): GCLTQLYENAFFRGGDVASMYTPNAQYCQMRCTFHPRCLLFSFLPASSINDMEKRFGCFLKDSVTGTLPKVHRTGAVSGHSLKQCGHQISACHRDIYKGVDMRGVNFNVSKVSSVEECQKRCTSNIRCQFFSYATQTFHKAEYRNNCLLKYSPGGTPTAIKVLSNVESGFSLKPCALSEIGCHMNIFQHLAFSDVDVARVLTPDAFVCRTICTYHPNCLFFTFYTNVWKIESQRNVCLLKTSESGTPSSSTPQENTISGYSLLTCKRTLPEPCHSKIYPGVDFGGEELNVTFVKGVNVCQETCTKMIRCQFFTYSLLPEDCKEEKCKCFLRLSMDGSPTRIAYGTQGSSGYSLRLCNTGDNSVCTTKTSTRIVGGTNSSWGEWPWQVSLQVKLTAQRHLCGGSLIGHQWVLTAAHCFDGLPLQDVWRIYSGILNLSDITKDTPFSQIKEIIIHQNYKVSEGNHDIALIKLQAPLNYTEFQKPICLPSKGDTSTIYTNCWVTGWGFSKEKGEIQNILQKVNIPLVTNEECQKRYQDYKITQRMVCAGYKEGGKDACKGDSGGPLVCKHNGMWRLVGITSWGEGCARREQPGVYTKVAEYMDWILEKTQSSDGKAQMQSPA
Sequence of NEP (P08473 whole entry): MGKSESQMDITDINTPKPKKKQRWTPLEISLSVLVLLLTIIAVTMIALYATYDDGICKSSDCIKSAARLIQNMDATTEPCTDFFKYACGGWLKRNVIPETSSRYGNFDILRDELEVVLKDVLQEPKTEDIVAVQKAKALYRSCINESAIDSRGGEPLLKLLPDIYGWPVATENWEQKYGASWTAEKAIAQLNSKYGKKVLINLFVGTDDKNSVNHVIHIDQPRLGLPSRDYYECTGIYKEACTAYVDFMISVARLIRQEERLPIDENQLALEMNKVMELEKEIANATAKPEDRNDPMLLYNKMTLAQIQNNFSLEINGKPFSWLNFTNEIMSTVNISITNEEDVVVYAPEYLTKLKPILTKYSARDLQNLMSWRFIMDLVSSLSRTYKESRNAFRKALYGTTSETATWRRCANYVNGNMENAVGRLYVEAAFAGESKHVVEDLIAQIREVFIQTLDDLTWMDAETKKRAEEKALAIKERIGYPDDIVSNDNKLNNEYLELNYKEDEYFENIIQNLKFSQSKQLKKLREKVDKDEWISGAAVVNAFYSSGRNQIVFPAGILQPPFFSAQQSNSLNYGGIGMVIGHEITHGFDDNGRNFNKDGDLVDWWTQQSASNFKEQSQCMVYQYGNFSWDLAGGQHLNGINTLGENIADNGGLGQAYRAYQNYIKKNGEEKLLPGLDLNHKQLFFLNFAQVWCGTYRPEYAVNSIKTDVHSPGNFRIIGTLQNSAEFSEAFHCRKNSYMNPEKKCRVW

Row | SMILES | Km (KLKB1) | kcat (KLKB1) | remaining at 0.5 h, 80 µM ([1]; human blood plasma) | remaining at 1 h, 80 µM ([1]; human blood plasma) | t1/2 (hplasma, h) ([1]; plasma) | Ki ([2]; displacement of [125I]-pyr-1-apelin-13 (0.2 nM), CHO membranes, rat apelin receptor-EGFP, means ± SE, read-out: Affinity Ki) | ability to rescue the heart from ischemic reperfusion injury (isolated rat hearts; peptide at start of reperfusion for 10 min at 1 pM) | max/min dP/dt, LVDP and RPP compared to native isoform 2 (isolated rat hearts; reperfusion) | degradation by KLKB1 (in words) (KLKB1; KLKB1) | inhibition of the proteolytic activity of NEP (NEP) | receptor binding affinity (in words) ([2]; rat apelin receptor)
1 | CSCC[C@H](NC(=O)[C@@H]1CCCN1C(=O)CNC(=O)[C@H](CCCCN)NC(=O)[C@H](Cc1cnc[nH]1)NC(=O)[C@H](CO)NC(=O)[C@H](CC(C)C)NC(=O)[C@H](CCCNC(=N)N)NC(=O)[C@@H]1CCCN1C(=O)[C@H](CCCNC(=N)N)NC(=O)[C@H](CCC(N)=O)NC(=O)[C@H](CCCNC(=N)N)NC(=O)[C@H](CCCNC(=N)N)NC(=O)[C@H](Cc1ccccc1)NC(=O)[C@@H](N)CCCCN)C(=O)N1CCC[C@H]1C(=O)N[C@@H](Cc1ccccc1)C(=O)O [Peptide 2, reference compound] | 97 ± 21 µM | 13.7 ± 1.3 s⁻¹ | 51 ± 17% | 39 ± 7% | 0.02 h | 0.05 nM |  |  |  |  | 
2 | CCCC[C@H](NC(=O)[C@@H]1CCCN1C(=O)CNC(=O)[C@H](CCCCN)NC(=O)[C@H](Cc1c[nH]cn1)NC(=O)[C@H](CO)NC(=O)[C@H](CC(C)C)N(C)C(=O)[C@H](CCCNC(=N)N)NC(=O)[C@@H]1CCCN1C(=O)[C@H](CCCNC(=N)N)NC(=O)[C@H](CCC(N)=O)NC(=O)[C@H](CCCNC(=N)N)NC(=O)[C@H](CCCNC(=N)N)NC(=O)[C@H](Cc1ccccc1)NC(=O)[C@@H](N)CCCCN)C(=O)NC(C)(C)C(=O)N[C@@H](Cc1ccc(Br)cc1)C(=O)O [Peptide 11] (H-KFRRQRPR[NMeL]SHKGP[Nle][Aib][Phe(4-Br)]-OH; C-terminus assumed) | 245 ± 75 µM | 16.5 ± 2.1 s⁻¹ |  |  |  |  | equivalent ability to rescue the heart from ischemic reperfusion injury compared to native isoform 2 | slight improvement over the native isoform | degraded quickly | no ability to inhibit the inherent activity of NEP | sub-nanomolar receptor affinities

Source: patent publication US10640545B2 (THE GOVERNORS OF THE UNIVERSITY OF ALBERTA, priority 2017, dated 2020)
